Laboratory results reported in US10633418B2, “Cross-linked peptides containing non-peptide cross-linked structure, method for synthesizing cross-linked peptides, and novel organic compound used in method” (JITSUBO Co., Ltd., priority 2011, dated 2020).
Numbered stars: 1 amine (or outer) side, 2 acyl side, 3 side chain; on linkers, the order of the positions; unused ones are H or OH. Bridge positions count the residues as written; N and C are the ends. Square brackets hold non-standard residues; d marks the D form. Peptide text beside a SMILES is read from it. Nle(6-ylidene) = O=C([C@H](CCCC=[*:3])N[*:1])[*:2]

Key:
carboxy peptidase = test: Decomposition by carboxy peptidase (resistance to peptidase); type: in vitro ADME; conditions: carboxy peptidase (isolated enzyme, SIGMA); enzyme solution 1 U/ml in PBS, peptide 0.2 mg/ml, 37° C., HPLC; time at which half of the peptide was decomposed; read-out: half period by carboxy peptidase (t1/2) (converted)
Method: (§1) Resistance to a peptidase of a peptide of the present invention was investigated using a carboxy peptidase and chymotrypsin. Resistance to a peptidase was measured as described below.
(Decomposition by Carboxy Peptidase)
A carboxy peptidase purchased from SIGMA was treated with PBS to prepare an enzyme solution of 1 U/ml, which was then kept warm at 37° C. in a water bath. Then, a peptide solution having a concentration adjusted to 5 mg/ml with DMSO: pure water=1:1 mixed solvent was treated with PBS(−) to obtain a concentration of 1 mg/ml, and the enzyme solution and the peptide solution were mixed at 4:1 so as to give a peptide final concentration of 0.2 mg/ml. Thereafter, these were reacted quickly at 37° C. With time, the reaction solution was sampled each in an amount of 0.1 ml, and a reaction stopping solution (25% TFA in acetonitrile, 20 μL) was added to stop the reaction. Samples were analyzed by HPLC, and decomposition of a peptide by the peptidase was measured. […] Time at which half of the peptide added was decomposed was measured.

chymotrypsin = target: T1, chymotrypsin (Bos taurus, UniProt P00766); test: Decomposition by chymotrypsin (resistance to peptidase); type: in vitro ADME; conditions: chymotrypsin (isolated enzyme, SIGMA), pH 8; enzyme solution 4 U/ml in 0.1M Tris-HCl (pH8.0), peptide 0.2 mg/ml, 37° C., HPLC; read-out: half period by chymotrypsin (t1/2)
T1 construct: purchased SIGMA
Method: as §1
(Decomposition by Chymotrypsin)
Chymotrypsin purchased from SIGMA was treated with 0.1M Tris-HCl (pH8.0) to prepare an enzyme solution of 4 U/ml, which was then kept warm at 37° C. in a water bath. Then, a peptide solution treated with DMSO: pure water=1:1 to obtain a concentration of 5 mg/ml was treated with 0.1M Tris-HCl (pH8.0) to give a concentration of 1 mg/ml, and the enzyme solution and the peptide solution were mixed at 4:1 so as to give a peptide final concentration of 0.2 mg/ml. Thereafter, these were reacted quickly at 37° C. With time, the reaction solution was sampled each in an amount of 0.1 ml, and a reaction stopping solution (25% TFA in acetonitrile, 20 μL) was added to stop the reaction. Samples were analyzed by HPLC, and decomposition of a peptide by chymotrypsin was measured. Sampling was conducted at 0, 0.5 minutes, 1 minute and 2 minutes, and when decomposition of 50% or more was not obtained at 2 minutes, sampling was conducted further at 0.5 hours, 1 hour, 3 hours, and time at which half of the peptide added was decomposed was measured.

Row | SMILES | half-life at 0.2 mg/ml (carboxy peptidase) [h] | half-life at 0.2 mg/ml (chymotrypsin) [min]
1 | CC(=O)N1CCCC[C@@H](C(=O)N[C@@H](Cc2ccc(O)cc2)C(=O)O)NC(=O)[C@H](CC(C)C)NC(=O)[C@H](Cc2ccc(O)cc2)NC(=O)[C@H](CCC(N)=O)NC(=O)[C@H](CO)NC(=O)[C@H](Cc2c[nH]c3ccccc23)NC(=O)CN(C(=O)[C@@H](N)Cc2ccc(O)cc2)CCCC1 [Bdev-19] | 0.0495 | 0.97
2 | CC(C)C[C@@H]1NC(=O)[C@H](Cc2ccc(O)cc2)NC(=O)[C@H](CCC(N)=O)NC(=O)[C@H](CO)NC(=O)[C@H](Cc2c[nH]c3ccccc23)NC(=O)[C@@H](NC(=O)[C@@H](N)Cc2ccc(O)cc2)CCC/C=C\CCC[C@@H](C(=O)N[C@@H](Cc2ccc(O)cc2)C(=O)O)NC1=O [Comp. 3] (H-Y[Nle(6-ylidene)]WSQYL[Nle(6-ylidene)]Y-OH; staple (Z) 2-8) | 79 | 2.07
